Reference: PubChem BioAssay AID720620 (The Scripps Research Institute Molecular Screening Center, 2013)
Calls of active or inactive are those of the source.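 How the source made its calls: active means at least 50% inhibition of the human mitochondrial methionine-charging enzyme at 10 µM; inactive means under 50% inhibition at 10 µM.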

Target: Methionine--tRNA ligase, mitochondrial (Homo sapiens) (UniProt Q96GW9)
Assay: human mitochondrial MetRS inhibitors, late-stage follow-up, counter-screen for T. brucei MetRS inhibitor project, biochemical, radioactivity, [3H]methionine, two concentrations (AID 720620)
Details: recombinant human mitochondrial MetRS, [3H]Met-tRNA charging, 60 min, stronger effect = higher value

Sequence of Methionine--tRNA ligase, mitochondrial (Homo sapiens) (Q96GW9 whole entry, looked up): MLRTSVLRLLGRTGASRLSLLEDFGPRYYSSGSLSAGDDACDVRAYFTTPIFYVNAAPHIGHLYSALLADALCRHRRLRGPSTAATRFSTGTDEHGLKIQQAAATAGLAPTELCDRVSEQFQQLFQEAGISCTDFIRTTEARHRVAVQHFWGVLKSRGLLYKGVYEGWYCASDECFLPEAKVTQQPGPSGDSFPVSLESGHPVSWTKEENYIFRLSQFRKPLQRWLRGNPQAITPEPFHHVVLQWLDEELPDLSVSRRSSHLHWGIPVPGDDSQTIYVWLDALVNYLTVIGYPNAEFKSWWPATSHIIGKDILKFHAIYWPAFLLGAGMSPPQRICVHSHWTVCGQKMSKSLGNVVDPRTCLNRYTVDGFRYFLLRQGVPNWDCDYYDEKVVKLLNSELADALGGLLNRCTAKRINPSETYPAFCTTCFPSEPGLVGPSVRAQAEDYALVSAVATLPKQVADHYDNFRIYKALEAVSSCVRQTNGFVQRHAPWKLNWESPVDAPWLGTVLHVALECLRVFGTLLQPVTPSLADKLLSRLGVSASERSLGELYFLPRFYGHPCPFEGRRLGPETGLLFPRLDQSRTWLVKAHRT

inhibition (at 10 µM) | inhibition (inhibition, at 1 µM) [%] | Structure (SMILES)
12.6% (inactive) | 7.99 | O=C(NCc1nc2ccccc2[nH]1)C1=C[C@H](C2CC2)C[C@H](OCc2ccc(CO)cc2)O1
10.2% (inactive) | -10.7 | O=C(NCc1nc2ccccc2[nH]1)C1=C[C@H](c2ccc3c(c2)OCO3)C[C@H](OCCCCO)O1
1.47% (inactive) | -13 | O=C(CC=NOCc1ccc([N+](=O)[O-])cc1)Nc1ccc(Cl)cc1
14% (inactive) | -17.1 | CN1CC(=O)N2C(c3cccc([N+](=O)[O-])c3)c3[nH]c4ccccc4c3C[C@H]2C1=O (stereo partly drawn)
-4.56% (inactive) | -8.53 | CCOC(=O)N1CCC(Nc2c(Nc3ccc(F)cc3)c(=O)c2=O)CC1
-19.7% (inactive) | -31.6 | COc1ccccc1-n1c(SCC(=O)Nc2ccc(Cl)cc2)nc(O)c(Cc2ccccc2)c1=O
6.67% (inactive) | -15 | O=C(NCc1nc2ccccc2[nH]1)C1=C[C@@H](c2csc3ccccc23)C[C@@H](OCCCCO)O1
12.7% (inactive) | -8.08 | O=C(NCc1nc2ccccc2[nH]1)C1=C[C@H](c2ccccc2)C[C@H](OCc2ccc(CO)cc2)O1
-6.53% (inactive) | -4.89 | CCO[C@@H]1OC(C(=O)NCc2nc3ccccc3[nH]2)=C[C@H](c2ccc(Br)cc2)[C@H]1CCCO
-2.4% (inactive) | -6.37 | O=C(NCc1nc2ccccc2[nH]1)C1=C[C@H](c2ccc(Br)cc2)C[C@H](OCCCCO)O1
43.8% (inactive) | -7.99 | CC(=O)c1c[nH]c(C(=O)NCc2cccc(C(F)(F)F)c2)c1
-11.2% (inactive) | -17.1 | O=C(NNC(=O)c1cc(-c2ccc(Cl)c(Cl)c2)nc2ccccc12)Nc1ccccc1
15.8% (inactive) | -16.8 | O=C(NCc1nc2ccccc2[nH]1)C1=C[C@@H](c2ccccc2)C[C@@H](OCc2ccc(CO)cc2)O1
29% (inactive) | -9.46 | O=C(NCc1nc2ccccc2[nH]1)C1=C[C@@H](c2ccc(Br)cc2)C[C@@H](OCCCCO)O1
9.9% (inactive) | -2.41 | CCCCCCCCCC1NC(C(=O)O)Cc2c1[nH]c1ccccc21 (stereo not drawn)
25.5% (inactive) | 2.97 | O=C(NCCc1nc2ccccc2[nH]1)c1ccc(Cl)c([N+](=O)[O-])c1
80.3% | 14 | CN(Cc1cc(Cl)cc(Cl)c1)[C@H]1C[C@H]2c3[nH]c4ccccc4c3CCN2C(=O)[C@H]1CO
-21.4% (inactive) | -30.3 | O=C(NNC(=O)c1ccc(-n2cncn2)c([N+](=O)[O-])c1)c1ccc(Cl)cc1
4.46% (inactive) | -17.4 | O=C1[C@@H]2Cc3c([nH]c4ccccc34)C(c3cccc([N+](=O)[O-])c3)N2C(=O)CN1CCCO (stereo partly drawn)
-0.68% (inactive) | -4.5 | O=C1CC(SCc2nc3ccccc3[nH]2)C(=O)N1c1cccc(Cl)c1 (stereo not drawn)
19.1% (inactive) | -9.69 | COc1ccccc1NS(=O)(=O)c1cccc(NC(=O)Nc2ccccc2)c1
31.4% (inactive) | -0.2 | Oc1c(Cl)cc(Cl)cc1CNc1nc2ccccc2[nH]1
4.32% (inactive) | -11.1 | O=C(Nc1ccc(F)c(Cl)c1)C1CC(=O)n2c(nc3ccccc32)N1 (stereo not drawn)
40.4% (inactive) | 49.7 | COc1cccc(NC(=O)CSc2nnc3c(n2)[nH]c2ccc(C)cc23)c1
25.6% (inactive) | -25.5 | O=C1CC(N(CCc2ccccc2)C(=S)Nc2ccccc2)C(=O)N1c1ccc(Br)cc1 (stereo not drawn)
-5.44% (inactive) | -10.6 | CC(C)(C)[C@@H]1C=C(C(=O)NCc2nc3ccccc3[nH]2)O[C@H](OCc2ccc(CO)cc2)C1
11.7% (inactive) | -15 | CCO[C@H]1OC(C(=O)NCc2nc3ccccc3[nH]2)=C[C@@H](c2ccc(Br)cc2)[C@@H]1CCCO

inhibition (at 10 µM) | inhibition (inhibition, at 1 µM) [%] | Structure (SMILES)
-19.1% (inactive) | -36.7 | CN(CC(=O)Nc1ccc(Cl)cc1)C(=O)c1ccc(-n2cncn2)c([N+](=O)[O-])c1
24.5% (inactive) | 14.3 | COc1ccc2[nH]c3nc(SCC(=O)Nc4ccc5c(c4)OCO5)nnc3c2c1
-6.71% (inactive) | -22.4 | O=C(CC=NOCc1ccc([N+](=O)[O-])cc1)Nc1ccc(Br)cc1
-11% (inactive) | -31.2 | Cc1[nH]c2ccc(Br)cc2c(=O)c1CN1CCCCCC1
4.55% (inactive) | -24.6 | CC(CC(=O)Nc1cccc(Br)c1)=NNC(=O)c1ccc(O)cc1O
0.31% (inactive) | -6.26 | COc1ccc(OCC(O)CNC(=O)Nc2ccc(Cl)cc2)cc1 (stereo not drawn)
7.87% (inactive) | -14.1 | CC(=O)c1ccc(N2CCN(C(=O)CCCn3c(=O)[nH]c4ccc(Br)cc4c3=O)CC2)cc1
-14.1% (inactive) | -28.9 | O=C(CCC(=O)Nc1cccc([N+](=O)[O-])c1)NN=Cc1cccs1
17.2% (inactive) | 0.59 | O=C(NCc1nc2ccccc2[nH]1)C1=C[C@H](c2ccc(Br)cc2)C[C@H](OCc2ccc(CO)cc2)O1
-14.2% (inactive) | -21.5 | Brc1cnc2nc(SCc3nc4ccccc4[nH]3)[nH]c2c1
-3.65% (inactive) | -24.2 | CC(C)OCCCN1CC(=O)N2C(c3cccc([N+](=O)[O-])c3)c3[nH]c4ccccc4c3C[C@H]2C1=O (stereo partly drawn)
-5.52% (inactive) | -20 | Clc1ccc(OCCSCc2nc3ccccc3[nH]2)cc1
16.7% (inactive) | -11.6 | O=C(NCc1nc2ccccc2[nH]1)C1=C[C@@H](c2ccc(Br)cc2)C[C@@H](OCc2ccc(CO)cc2)O1
-21.5% (inactive) | -35.7 | Cc1ccc(NC(=O)CN(C)C(=O)CCSc2ccc(F)cc2)cc1
41.9% (inactive) | -3.17 | Clc1ccc(-c2nnc(SCc3nc4ccccc4[nH]3)o2)c(Cl)c1
-12% (inactive) | -29.7 | COc1ccc(CNC(=O)CSc2nnc3c(n2)[nH]c2ccc(F)cc23)cc1
-0.58% (inactive) | -3.63 | O=C(NCc1nc2ccccc2[nH]1)C1=C[C@@H](c2ccc3c(c2)OCO3)C[C@@H](OCCCCO)O1
5.87% (inactive) | -11.4 | O=C(NCc1nc2ccccc2[nH]1)C1=C[C@@H](C2CC2)C[C@@H](OCc2ccc(CO)cc2)O1
24.8% (inactive) | -17.7 | C[C@H](O)[C@@H]1C(=O)N2CCc3c([nH]c4ccccc34)[C@@H]2C[C@@H]1N(C)Cc1ccc2c(c1)OCO2
10.3% (inactive) | -20.5 | CC(C)(C)[C@H]1C=C(C(=O)NCc2nc3ccccc3[nH]2)O[C@@H](OCc2ccc(CO)cc2)C1
2.21% (inactive) | -9.21 | O=C(NCc1nc2ccccc2[nH]1)C1=C[C@H](c2csc3ccccc23)C[C@H](OCCCCO)O1
-6.56% (inactive) | -22.4 | O=C(Cn1cc(C(=O)C(=O)N2CCOCC2)c2ccccc21)Nc1cccc(C(F)(F)F)c1
-2.2% (inactive) | -15.4 | O=C(Cn1cnc2ccccc21)Nc1cccc([N+](=O)[O-])c1
-8.54% (inactive) | -13 | O=C(C[C@H]1C(=O)N(Cc2ccccc2)C[C@@H]1c1ccc(Br)cc1)Nc1ccc(Br)cc1
4.89% (inactive) | -19.7 | O=C(N/C(=C\c1cccnc1)c1nc2ccccc2[nH]1)c1cccc(Br)c1
-25.5% (inactive) | -25.1 | O=C(CN1CCSC1=NCc1ccccc1)c1ccc(Cl)c(Cl)c1
9.82% (inactive) | -18.3 | O=C(CC(=O)Nc1cccc(Cl)c1)NN=Cc1ccccc1
